pIC50: −log10 of the molar value.
Test system: K98450-129-R-PDC complex spheroid growth, percent test/control
Assay: Anticancer human tumor K98450-129-R-PDC patient-derived colon adenocarcinoma cell line growth inhibition [RAS]
Conditions: for pIC50: curve of first compound; for viability, T/C: stronger effect = lower value
In short: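 Agents were tested in combination matrices in half-log decrements from a top concentration at or near clinical Cmax (10 microM if undetermined). Targets were multi-cell spheroids of tumour lines plus HUVEC and MSC stromal cells.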

[1] = second compound 0.000949 µM, first compound 0.0316 µM
[2] = second compound 0.000949 µM, first compound 0.1 µM
[3] = second compound 0.000949 µM, first compound 0.316 µM
[4] = second compound 0.000949 µM, first compound 1 µM
[5] = second compound 0.000949 µM, first compound 3.16 µM
[6] = second compound 0.000949 µM, first compound 10 µM
[7] = second compound 0.003 µM, first compound 0.0316 µM
[8] = second compound 0.003 µM, first compound 0.1 µM
[9] = second compound 0.003 µM, first compound 0.316 µM
[10] = second compound 0.003 µM, first compound 1 µM
[11] = second compound 0.003 µM, first compound 3.16 µM
[12] = second compound 0.003 µM, first compound 10 µM
[13] = second compound 0.00949 µM, first compound 0.0316 µM
[14] = second compound 0.00949 µM, first compound 0.1 µM
[15] = second compound 0.00949 µM, first compound 0.316 µM
[16] = second compound 0.00949 µM, first compound 1 µM
[17] = second compound 0.00949 µM, first compound 3.16 µM
[18] = second compound 0.00949 µM, first compound 10 µM
[19] = second compound 0.03 µM, first compound 0.0316 µM
[20] = second compound 0.03 µM, first compound 0.1 µM
[21] = second compound 0.03 µM, first compound 0.316 µM
[22] = second compound 0.03 µM, first compound 1 µM
[23] = second compound 0.03 µM, first compound 3.16 µM
[24] = second compound 0.03 µM, first compound 10 µM
[25] = second compound 0.0949 µM, first compound 0.0316 µM
[26] = second compound 0.0949 µM, first compound 0.1 µM
[27] = second compound 0.0949 µM, first compound 0.316 µM
[28] = second compound 0.0949 µM, first compound 1 µM
[29] = second compound 0.0949 µM, first compound 3.16 µM
[30] = second compound 0.0949 µM, first compound 10 µM
[31] = second compound 0.3 µM, first compound 0.0316 µM
[32] = second compound 0.3 µM, first compound 0.1 µM
[33] = second compound 0.3 µM, first compound 0.316 µM
[34] = second compound 0.3 µM, first compound 1 µM
[35] = second compound 0.3 µM, first compound 3.16 µM
[36] = second compound 0.3 µM, first compound 10 µM
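Also: spheroids exposed to agents for seven days before the viability readout.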
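For viability, T/C in this document: luminescence used as a proxy for viable cell amount.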

In the case of `CCC(CC)c1cc(NC2CCC(N)C2)n2nccc2n1` (centres undefined) + CCn1c(-c2cccnc2C(C)OC)c2c3cc(ccc31)N1CCOC(CC(NC(=O)C(C(C)C)N(C)C(=O)C3(F)CCN(C(=O)C#CC(C)(C)N(C)C)CC3)C(=O)N3CCCC(N3)C(=O)OCC(C)(C)C2)C1, the pIC50 (second compound 0.000949 µM) was 5.53, the pIC50 (second compound 0.003 µM) was 6.26 and the pIC50 (second compound 0.00949 µM) was > 7.50. For the same compound, the pIC50 (second compound 0.03 µM) was > 7.50, the pIC50 (second compound 0.0949 µM) was > 7.50 and the pIC50 (second compound 0.3 µM) was > 7.50. The viability, T/C [1] was 77.1%, the viability, T/C [2] was 72.7% and the viability, T/C [3] was 73%. For the same compound, the viability, T/C [4] was 59.7%, the viability, T/C [5] was 52.3% and the viability, T/C [6] was 11.8%. It also gave a viability, T/C [7] of 65.2%, a viability, T/C [8] of 59% and a viability, T/C [9] of 56.8%. For the same compound, the viability, T/C [10] was 39.4%, the viability, T/C [11] was 36.9% and the viability, T/C [12] was 10.6%. The viability, T/C [13] was 44.4%, the viability, T/C [14] was 53.3% and the viability, T/C [15] was 48.8%. For the same compound, the viability, T/C [16] was 35.4%, the viability, T/C [17] was 20.8% and the viability, T/C [18] was 11.9%. For the same compound, the viability, T/C [19] was 33.7%, the viability, T/C [20] was 42.4% and the viability, T/C [21] was 40.2%. The viability, T/C [22] was 23.1%, the viability, T/C [23] was 20.5% and the viability, T/C [24] was 10.4%. The viability, T/C [25] was 29.9%, the viability, T/C [26] was 33.4% and the viability, T/C [27] was 38.3%. The viability, T/C [28] was 36.3%, the viability, T/C [29] was 11.8% and the viability, T/C [30] was 9.38%. The viability, T/C [31] was 34.1%, the viability, T/C [32] was 36.5% and the viability, T/C [33] was 39.2%. The viability, T/C [34] was 31.3%, the viability, T/C [35] was 12.7% and the viability, T/C [36] was 9.36%.

For `Cc1nc(N2CCC3(CC2)COC(C)C3N)c(CO)nc1Sc1ccnc(N)c1Cl` (centres undefined) + CCn1c(-c2cccnc2C(C)OC)c2c3cc(ccc31)N1CCOC(CC(NC(=O)C(C(C)C)N(C)C(=O)C3(F)CCN(C(=O)C#CC(C)(C)N(C)C)CC3)C(=O)N3CCCC(N3)C(=O)OCC(C)(C)C2)C1, the pIC50 (second compound 0.000949 µM) was 6.44, the pIC50 (second compound 0.003 µM) was 7.38 and the pIC50 (second compound 0.00949 µM) was > 7.50. The pIC50 (second compound 0.03 µM) was > 7.50, the pIC50 (second compound 0.0949 µM) was > 7.50 and the pIC50 (second compound 0.3 µM) was > 7.50. For the same compound, the viability, T/C [1] was 71.8%, the viability, T/C [2] was 64.7% and the viability, T/C [3] was 54.1%. The viability, T/C [4] was 27.5%, the viability, T/C [5] was 12.1% and the viability, T/C [6] was 9.55%. The viability, T/C [7] was 53.4%, the viability, T/C [8] was 39% and the viability, T/C [9] was 16.9%. For the same compound, the viability, T/C [10] was 10.4%, the viability, T/C [11] was 8.15% and the viability, T/C [12] was 7.47%. For the same compound, the viability, T/C [13] was 32.7%, the viability, T/C [14] was 21.6% and the viability, T/C [15] was 12.3%. The viability, T/C [16] was 8.57%, the viability, T/C [17] was 8.2% and the viability, T/C [18] was 6.2%. For the same compound, the viability, T/C [19] was 26.1%, the viability, T/C [20] was 14.9% and the viability, T/C [21] was 10.7%. It also gave a viability, T/C [22] of 10.1%, a viability, T/C [23] of 6.29% and a viability, T/C [24] of 6.11%. The viability, T/C [25] was 20.9%, the viability, T/C [26] was 16% and the viability, T/C [27] was 8.78%. The viability, T/C [28] was 8.48%, the viability, T/C [29] was 8.98% and the viability, T/C [30] was 6.05%. For the same compound, the viability, T/C [31] was 21.7%, the viability, T/C [32] was 14.2% and the viability, T/C [33] was 10.3%. The viability, T/C [34] was 8.27%, the viability, T/C [35] was 8.02% and the viability, T/C [36] was 6.57%.

Source: PubChem BioAssay AID2060891 (Molecular Pharmacology Branch, DTP, NCI, 2025)
